Consider `O=C(Nc1ccc(C(F)(F)F)cc1)c1ccc(-c2ncccc2Cl)cc1`, for which the melting point is 208.6 °C.

Consider `O=C(Nc1ccc(C(F)(F)F)cc1)c1ccc(-c2ncccc2C(F)(F)F)cc1` [Example 1, N-(4-Trifluoromethyl-phenyl)-4-(3-trifluoromethyl-pyridin-2-yl)-benzamide], for which the melting point fell in the range of 197.8 to 197.9 °C.

The term melting point denotes the temperature, or range, at which the solid turns liquid.

For the origin of these results see patent publication US20050165015A1, “Vanilloid receptor ligands and their use in treatments” (priority 2004, published 2005).
